Test results published in BigSolDB 2.1.

CC1CCC(=O)C1=O (stereo unspecified)
solubility (mole fraction)
Conditions | 278.15 K | 283.15 K | 288.15 K | 293.15 K | 298.15 K | 303.15 K | 308.15 K | 313.15 K
in 1,2-dichloroethane | 0.0554 | 0.0773 | 0.0992 | 0.122 | 0.153 | 0.184 | 0.215 | 0.254
in acetone | 0.0937 | 0.105 | 0.133 | 0.152 | 0.182 | 0.221 | 0.255 | 0.298
in acetonitrile | 0.0331 | 0.0519 | 0.0657 | 0.0823 | 0.11 | 0.139 | 0.17 | 0.204
in dichloromethane | 0.103 | 0.123 | 0.145 | 0.18 | 0.217 | 0.251 | 0.292 | 0.333
in ethanol | 0.044 | 0.0503 | 0.0645 | 0.0752 | 0.0939 | 0.111 | 0.145 | 0.187
in ethyl acetate | 0.0482 | 0.0574 | 0.0698 | 0.094 | 0.131 | 0.156 | 0.203 | 0.251
in ethyl formate | 0.0504 | 0.0603 | 0.0707 | 0.0943 | 0.12 | 0.147 | 0.176 | 0.239
in isobutanol | 0.0394 | 0.0467 | 0.052 | 0.0701 | 0.0866 | 0.111 | 0.153 | 0.211
in isopropanol | 0.0198 | 0.0388 | 0.0599 | 0.0768 | 0.101 | 0.13 | 0.165 | 0.207
in methanol | 0.0488 | 0.0629 | 0.0787 | 0.0966 | 0.119 | 0.147 | 0.177 | 0.208
in n-butanol | 0.0353 | 0.0444 | 0.0552 | 0.0693 | 0.0858 | 0.105 | 0.133 | 0.18
in n-propanol | 0.0389 | 0.0474 | 0.0581 | 0.0731 | 0.0903 | 0.113 | 0.141 | 0.202
